US7947729B2, “Adduct of fluorescent dye and tumor avid tetrapyrrole” (Health Research, Inc., priority 2004, dated 2011)

How the values were obtained:
[1] = system: RIF tumors; assay: Tumor uptake by in vivo reflectance spectroscopy; design: species or system C3H mice
Description: The tumor uptake of conjugate 5 was determined by in vivo reflectance spectroscopy. For these experiments, C3H mice bearing RIF tumors were injected with 5.0 μmole/kg of conjugate 5 and the in vivo absorption spectra were taken at various time intervals.

[2] = system: RIF tumors; assay: Photosensitizing efficiency (photodynamic therapy of implanted tumors); type: in vivo, C3H mice; details: light 135 J/cm^2 at 665 nm, 24 hours post injection, FIG. 7
Description: To measure photosensitizing efficiency, RIF tumors were implanted subcutaneously into axilla of 5-7 week old female C3H mice. When tumors grew to about […] in size, conjugate 5 was injected at variable doses (0.5, 1.0, 1.5, and 2.5 μmole/kg) The tumors were treated with light at an energy of 135 J/cm^2 at a wavelength of 665 nm (in vivo absorption band for HPPH) at 24 hours post injection and the mice were observed daily. From the results summarized in FIG. 7, it can be seen that conjugate 5 produced 100% tumor cure at a dose of 2.5 μmole/kg (the tumor imaging dose).

[3] = system: RIF tumor cells; assay: Site of intracellular localization compared with a mitochondrial probe; type: cell-based; details: 24 hours incubation; compared with MITO-TRACKER green (400 nM); FIG. 8
Excerpt: In general, porphyrin based compounds have shown diverse patterns of localization at least somewhat dependent upon structure, lipophilicity and charge.

SMILES	uptake in tumor relative to skin ([1]; 5.0 μmole/kg injected, 24 hours post injection, FIG. 3)	tumor cure ([2]; 2.5 μmole/kg)	photosensitizing efficacy at lower doses ([2]; doses below 2.5 μmole/kg (0.5, 1.0, 1.5))	site of localization in cells [3]	uptake in skin relative to tumor, dye alone ([1]; 5.0 μmole/kg, dye alone, C3H mouse bearing tumor)	tumor uptake compared with HPPH-ICG conjugate 5 ([1]; 5.0 μmole/kg, dye alone, FIG. 5)	time post injection at which cleared from both tumor and skin ([1]; 5.0 μmole/kg, dye alone, found to clear rapidly)
CCCCCCOC(C)c1c(C)c2cc3nc(c4c5[nH]c(cc6nc(cc1[nH]2)C(C)=C6CC)c(C)c5C(=O)C4)C(CCC(=O)Nc1ccc(SC2=C(C=CC4=[N+](CCCCS(=O)(=O)[O-])c5ccc6ccccc6c5C4(C)C)CCCC2=CC=C2N(CCCCS(=O)(=O)[O-])c4ccc5ccccc5c4C2(C)C)cc1)C3C.[Na+] (stereo not shown) [conjugate 5]	more significant uptake in tumor than skin	100%	limited photosensitizing efficacy	localizes in mitochondria	–	–	–
CC1(C)C(=CC=C2CCCC(C=CC3=[N+](CCCCS(=O)(=O)[O-])c4ccc5ccccc5c4C3(C)C)=C2Cl)N(CCCCS(=O)(=O)[O-])c2ccc3ccccc3c21.[Na+] [indocyanine green analog (1), indocyanine green 820 nm analog CAS172616-80-7]	–	–	–	–	higher uptake in skin than in tumor	significantly lower tumor uptake	4 to 5 h
